PMC7792806, “Development of Second Generation Activity-Based Chemical Probes for Sirtuins” (Molecules, 2020)

Experiments:
Format in all cases: biochemical
SIRT6 = SIRT6 (Homo sapiens, UniProt Q8N6T7); experiment: Sirtuin inhibition assay (HPLC), SIRT6; set-up: host or cells: E. coli (inferred from b12); conditions: substrate H3K9Ac; 500 μM NAD+, 500 μM peptide, 10 μM sirtuin, pH 7.5, 37 °C; NI = Not inhibited
Method: (§1) Plasmids of SIRT1 (full length), SIRT2 (38-356), SIRT3 (102-399), and SIRT5 (34-302) were generous gifts from Dr. Hening Lin (Cornell University, Ithaca, NY, USA). SIRT6 was a gift from Cheryl Arrowsmith (Addgene plasmid #28271). The proteins were expressed and purified according to previously published protocols. The identity of the protein was confirmed by tryptic digestion followed by LC-MS/MS analysis performed at the Vermont Genetic Network (VGN) Proteomics Facility. Protein concentrations were determined by Bradford assay (Thermo Fisher Scientific, Rockford, IL, USA).
A typical reaction contained 500 μM NAD^+ and 500 μM peptide substrate (H3K9Ac for SIRT2, SIRT3 and SIRT6, p53K382Ac for SIRT1 and SIRT5) of varying concentrations of a small molecule probe in 100 mM phosphate buffer pH 7.5. The reactions were initiated by the addition of 10 μM of sirtuin and were incubated at 37 °C before being quenched by 8 μL of 10% TFA. The incubation time was controlled so that the conversion of substrate was less than 15%. The samples were then injected on an HPLC fitted to a Macherey-Nagel Nucleosil C18 column. NAD^+, NAM and AADPR (acetyl-ADP-ribose) peaks were resolved using a gradient of 0 to 20% methanol in 20 mM ammonium acetate. Chromatograms were analyzed at 260 nm. Reactions were quantified by integrating areas of peaks corresponding to NAD^+ and AADPR. […]

SIRT5 = target: T1, SIRT5 (Homo sapiens, UniProt Q9NXA8); experiment: Labeling of SIRT5 in partially purified recombinant sirtuin mixture and peptide competition; conditions: 500 μM NAD+, increasing concentrations of probe, 20 min irradiation
T1 construct: SIRT5 (34-302); made in house
T1 sequence (Q9NXA8 34-302): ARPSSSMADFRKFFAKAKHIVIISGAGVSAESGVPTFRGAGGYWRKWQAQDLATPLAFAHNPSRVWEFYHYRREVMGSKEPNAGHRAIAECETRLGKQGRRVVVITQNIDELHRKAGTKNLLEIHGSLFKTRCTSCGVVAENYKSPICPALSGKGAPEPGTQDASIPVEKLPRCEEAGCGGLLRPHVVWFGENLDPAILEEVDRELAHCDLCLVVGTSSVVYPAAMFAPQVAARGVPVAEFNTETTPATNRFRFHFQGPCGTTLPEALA
Description: Probe 2B, being a selective SIRT5 inhibitor, was also selective for SIRT5 in the labeling experiments. […] The on-target effect of probe 2B was further confirmed by the peptide competition analysis. H3K9Suc (Figure 4B), a synthetic peptide that is identical to the N-terminus of histone H3 bearing a succinylated lysine 9 mark, is a known SIRT5 substrate. H3K9Suc was titrated into SIRT5 in the presence of probe 2B.
Figure 4 Labeling of SIRT5 by probe 2B. (A) Dose-dependent labeling of SIRT5 by probe 2B in recombinantly expressed, partially purified sirtuin mixture. SIRT1, SIRT2, SIRT3, SIRT5, and SIRT6 were mixed and incubated with 500 μM NAD^+ and increasing concentrations of 2B. The samples were incubated at 37 °C for 10 min and subjected to UV irradiation for 20 min, and then “click” conjugated to TAMRA-azide; (B) Chemical structure of H3K9Suc; (C) Peptide competition. The labeling of SIRT5 by probe 2B decreased with increasing concentrations of the competitor peptide, H3K9Suc.
A typical labeling experiment was performed as follows: in a 0.7 mL Eppendorf tube, purified recombinant human sirtuin (10 μM) was incubated with NAD^+ (500 μM) and activity-based probe at 37 °C for 10 min. […] Then, destained gel was analyzed with in-gel fluorescence scanning using a Biorad ChemiDoc MP imager (excitation 532 nm, 580 nm cut-off filter and 30 nm band-pass). […]

SIRT1 = target: T2, SIRT1 (Homo sapiens, UniProt Q96EB6); experiment: Sirtuin inhibition assay (HPLC), SIRT1; conditions: substrate p53K382Ac; 500 μM NAD+, 500 μM peptide, 10 μM sirtuin, pH 7.5, 37 °C
T2 construct: Plasmids of SIRT1 (full length); made in house
T2 sequence (Q96EB6 1-747): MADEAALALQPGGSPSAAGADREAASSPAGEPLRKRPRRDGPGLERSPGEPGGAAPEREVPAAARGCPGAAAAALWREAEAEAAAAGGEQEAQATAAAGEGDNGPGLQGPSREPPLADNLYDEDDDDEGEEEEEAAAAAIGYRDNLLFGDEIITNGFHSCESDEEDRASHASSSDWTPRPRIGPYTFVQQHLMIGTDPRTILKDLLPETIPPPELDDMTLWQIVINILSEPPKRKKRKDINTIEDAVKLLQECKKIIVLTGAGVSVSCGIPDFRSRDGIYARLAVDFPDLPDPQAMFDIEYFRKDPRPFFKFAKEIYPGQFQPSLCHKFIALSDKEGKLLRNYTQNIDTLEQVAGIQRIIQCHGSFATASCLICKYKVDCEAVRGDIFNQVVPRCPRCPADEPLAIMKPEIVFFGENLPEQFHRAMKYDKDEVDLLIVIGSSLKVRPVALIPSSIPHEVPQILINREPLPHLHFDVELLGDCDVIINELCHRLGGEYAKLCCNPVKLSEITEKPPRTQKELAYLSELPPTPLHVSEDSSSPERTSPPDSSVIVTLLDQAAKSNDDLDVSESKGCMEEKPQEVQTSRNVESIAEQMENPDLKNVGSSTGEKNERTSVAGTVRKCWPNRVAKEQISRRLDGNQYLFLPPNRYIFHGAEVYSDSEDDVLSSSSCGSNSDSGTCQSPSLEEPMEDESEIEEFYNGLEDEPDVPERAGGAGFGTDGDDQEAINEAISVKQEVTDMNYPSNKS
Method: as §1
A typical reaction contained 500 μM NAD^+ and 500 μM peptide substrate (H3K9Ac for SIRT2, SIRT3 and SIRT6, p53K382Ac for SIRT1 and SIRT5) of varying concentrations of a small molecule probe in 100 mM phosphate buffer pH 7.5. The reactions were initiated by the addition of 10 μM of sirtuin and were incubated at 37 °C before being quenched by 8 μL of 10% TFA. The incubation time was controlled so that the conversion of substrate was less than 15%. The samples were then injected on an HPLC fitted to a Macherey-Nagel Nucleosil C18 column. NAD^+, NAM and AADPR (acetyl-ADP-ribose) peaks were resolved using a gradient of 0 to 20% methanol in 20 mM ammonium acetate. Chromatograms were analyzed at 260 nm. Reactions were quantified by integrating areas of peaks corresponding to NAD^+ and AADPR. Rates were plotted as a function of small molecule probe concentration, and points were fitted to the following equation:ν(%) = ν0(%) − [ν0(%)(10^x)/(10^x + IC50)](1) where ν(%) represents the turnover rate expressed as percent enzymatic activity remaining, and ν0(%) represents the uninhibited turnover rate expressed as an enzymatic activity of 100%. The variable x represents the log[probe] in nanomolar. IC50 values were derived from this equation.

Sequence of SIRT6 (Q8N6T7 whole entry): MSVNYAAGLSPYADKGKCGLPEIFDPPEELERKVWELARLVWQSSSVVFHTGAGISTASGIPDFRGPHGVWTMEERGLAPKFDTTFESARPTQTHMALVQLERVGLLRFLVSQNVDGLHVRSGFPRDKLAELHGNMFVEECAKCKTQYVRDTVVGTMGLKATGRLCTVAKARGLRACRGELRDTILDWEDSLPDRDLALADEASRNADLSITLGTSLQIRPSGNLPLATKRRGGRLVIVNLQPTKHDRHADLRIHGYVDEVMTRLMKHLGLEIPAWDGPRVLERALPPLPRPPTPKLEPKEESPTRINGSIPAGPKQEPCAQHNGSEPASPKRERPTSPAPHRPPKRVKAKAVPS

IC50 (SIRT6): > 5 mM
IC50 (SIRT1): > 2 mM
SMILES: C#CCCCC1(CCC(=O)N[C@@H](CCCCNC(=S)CCC(=O)O)C(=O)N[C@@H](C)C(=O)N[C@@H](C)C(=O)OC)N=N1 [Probe 2B]
labeling of SIRT5 in sirtuin mixture (SIRT5): robust labeling of SIRT5 in a concentration-dependent fashion
